Experiment [1] deals with T1, Tyrosine-protein kinase Mer (Homo sapiens) (UniProt Q12866).
T1 sequence (whole entry): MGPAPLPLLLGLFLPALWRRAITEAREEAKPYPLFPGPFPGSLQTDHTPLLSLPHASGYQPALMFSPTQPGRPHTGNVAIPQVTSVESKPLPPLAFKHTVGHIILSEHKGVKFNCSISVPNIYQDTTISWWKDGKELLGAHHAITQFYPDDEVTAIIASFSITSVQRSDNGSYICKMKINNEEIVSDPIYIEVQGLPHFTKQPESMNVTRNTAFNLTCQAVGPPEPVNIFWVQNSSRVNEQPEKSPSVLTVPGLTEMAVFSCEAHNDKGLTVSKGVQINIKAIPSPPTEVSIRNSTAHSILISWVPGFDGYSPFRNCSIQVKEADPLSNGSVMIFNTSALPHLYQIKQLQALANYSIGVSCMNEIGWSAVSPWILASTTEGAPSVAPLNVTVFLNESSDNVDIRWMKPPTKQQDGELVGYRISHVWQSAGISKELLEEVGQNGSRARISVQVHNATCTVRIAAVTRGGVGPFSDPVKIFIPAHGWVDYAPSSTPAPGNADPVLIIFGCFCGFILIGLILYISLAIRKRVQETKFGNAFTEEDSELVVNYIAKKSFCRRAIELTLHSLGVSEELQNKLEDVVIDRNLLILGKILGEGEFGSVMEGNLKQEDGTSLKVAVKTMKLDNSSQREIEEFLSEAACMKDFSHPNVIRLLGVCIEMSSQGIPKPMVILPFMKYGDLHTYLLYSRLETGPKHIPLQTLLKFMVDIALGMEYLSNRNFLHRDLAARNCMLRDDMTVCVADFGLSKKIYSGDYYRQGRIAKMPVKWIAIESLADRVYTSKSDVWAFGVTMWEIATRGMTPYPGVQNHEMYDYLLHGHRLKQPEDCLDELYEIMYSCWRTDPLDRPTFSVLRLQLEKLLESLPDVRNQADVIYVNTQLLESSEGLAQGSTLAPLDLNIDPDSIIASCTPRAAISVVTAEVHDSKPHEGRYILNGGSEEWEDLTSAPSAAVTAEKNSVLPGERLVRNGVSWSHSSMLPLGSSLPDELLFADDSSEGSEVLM
The experiment in a line: Selectivity interaction (KinomeScan (DiscoverX)) EUB0000607a MERTK. The following applies: at 10 µM.

Experiment [2] has as its target Homeodomain-interacting protein kinase 3 (Homo sapiens, UniProt Q9H422). The experiment in a line: Selectivity interaction (KinomeScan (DiscoverX)) EUB0000666a HIPK3. The following applies: at 10 µM.
Experiment [3] addresses T2, Mitogen-activated protein kinase 13 (Homo sapiens) (UniProt O15264).
T2 sequence (whole entry): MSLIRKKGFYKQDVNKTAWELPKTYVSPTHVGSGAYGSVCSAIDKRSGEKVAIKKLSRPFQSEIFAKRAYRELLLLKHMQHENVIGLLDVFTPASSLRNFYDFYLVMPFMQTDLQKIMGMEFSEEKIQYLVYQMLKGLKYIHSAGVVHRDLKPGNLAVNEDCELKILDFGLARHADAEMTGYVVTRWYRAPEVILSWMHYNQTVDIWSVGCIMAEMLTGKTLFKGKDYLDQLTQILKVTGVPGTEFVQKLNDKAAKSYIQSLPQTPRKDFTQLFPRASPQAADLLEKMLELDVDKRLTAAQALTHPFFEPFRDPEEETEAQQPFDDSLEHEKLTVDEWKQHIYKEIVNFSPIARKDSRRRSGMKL
The experiment in a line: Selectivity interaction (ActivX KiNativ screen (ex vivo kinase selectivity in human PBMCs)) EUB0001619a MAPK13. Format: cell-based. The following applies: PBMC, at 1 µM.

The target in experiment [4] is T3, Ephrin type-A receptor 1 (Homo sapiens) (UniProt P21709).
T3 sequence (whole entry): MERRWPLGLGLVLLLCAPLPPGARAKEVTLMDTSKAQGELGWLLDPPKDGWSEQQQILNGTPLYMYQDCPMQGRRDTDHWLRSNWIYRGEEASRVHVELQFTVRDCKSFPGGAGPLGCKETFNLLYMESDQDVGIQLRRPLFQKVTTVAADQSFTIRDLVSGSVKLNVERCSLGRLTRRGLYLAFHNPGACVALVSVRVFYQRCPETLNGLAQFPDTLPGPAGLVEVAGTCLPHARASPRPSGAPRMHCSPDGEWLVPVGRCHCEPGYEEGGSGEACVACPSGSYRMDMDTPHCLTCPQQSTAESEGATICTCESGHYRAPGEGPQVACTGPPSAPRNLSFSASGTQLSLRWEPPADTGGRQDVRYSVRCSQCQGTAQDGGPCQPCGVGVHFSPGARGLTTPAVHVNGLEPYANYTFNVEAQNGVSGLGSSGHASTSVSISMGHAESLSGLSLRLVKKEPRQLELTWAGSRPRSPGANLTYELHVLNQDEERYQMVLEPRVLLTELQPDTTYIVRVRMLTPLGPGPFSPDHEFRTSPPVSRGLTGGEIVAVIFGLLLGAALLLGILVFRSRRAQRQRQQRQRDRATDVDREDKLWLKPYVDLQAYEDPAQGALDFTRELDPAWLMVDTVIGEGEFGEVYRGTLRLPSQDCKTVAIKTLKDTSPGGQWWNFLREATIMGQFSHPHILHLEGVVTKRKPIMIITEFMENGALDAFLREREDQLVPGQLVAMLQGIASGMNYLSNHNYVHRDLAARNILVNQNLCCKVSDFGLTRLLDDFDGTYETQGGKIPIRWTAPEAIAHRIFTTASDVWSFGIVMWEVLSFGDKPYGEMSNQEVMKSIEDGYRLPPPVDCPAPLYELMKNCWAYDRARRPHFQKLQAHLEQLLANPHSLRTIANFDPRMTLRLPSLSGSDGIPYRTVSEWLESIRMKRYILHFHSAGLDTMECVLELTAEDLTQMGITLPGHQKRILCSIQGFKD
The experiment in a line: Selectivity interaction (Kinase panel (Invitrogen)) EUB0000639a EPHA1. The following applies: at 200 nM.

The target in experiment [5] is Serine/threonine-protein kinase RIO2 (Homo sapiens) (UniProt Q9BVS4). The experiment in a line: Selectivity interaction (KinomeScan (DiscoverX)) EUB0000695a RIOK2. The following applies: at 100 nM.
Chain of Serine/threonine-protein kinase RIO2 (Homo sapiens) (Q9BVS4 whole entry, looked up): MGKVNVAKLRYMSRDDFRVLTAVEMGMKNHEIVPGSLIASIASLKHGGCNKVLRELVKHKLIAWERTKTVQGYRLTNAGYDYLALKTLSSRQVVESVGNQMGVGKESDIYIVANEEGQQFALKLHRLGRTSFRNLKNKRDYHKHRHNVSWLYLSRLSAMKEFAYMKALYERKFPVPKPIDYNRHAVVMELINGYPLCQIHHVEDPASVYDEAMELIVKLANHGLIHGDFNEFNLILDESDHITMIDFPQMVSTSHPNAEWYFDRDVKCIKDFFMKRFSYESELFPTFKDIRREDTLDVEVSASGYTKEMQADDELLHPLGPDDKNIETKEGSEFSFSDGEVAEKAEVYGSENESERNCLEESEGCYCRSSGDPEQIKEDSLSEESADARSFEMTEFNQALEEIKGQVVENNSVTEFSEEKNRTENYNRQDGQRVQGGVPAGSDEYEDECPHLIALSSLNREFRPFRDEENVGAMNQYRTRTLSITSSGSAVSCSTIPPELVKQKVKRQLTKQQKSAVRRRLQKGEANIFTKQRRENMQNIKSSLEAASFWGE
The target in experiment [6] is Serine/threonine-protein kinase PAK 1 (Homo sapiens) (UniProt Q13153). The experiment in a line: Selectivity interaction (ProQinase) EUB0000171b PAK1.
Chain of Serine/threonine-protein kinase PAK 1 (Homo sapiens) (Q13153 whole entry): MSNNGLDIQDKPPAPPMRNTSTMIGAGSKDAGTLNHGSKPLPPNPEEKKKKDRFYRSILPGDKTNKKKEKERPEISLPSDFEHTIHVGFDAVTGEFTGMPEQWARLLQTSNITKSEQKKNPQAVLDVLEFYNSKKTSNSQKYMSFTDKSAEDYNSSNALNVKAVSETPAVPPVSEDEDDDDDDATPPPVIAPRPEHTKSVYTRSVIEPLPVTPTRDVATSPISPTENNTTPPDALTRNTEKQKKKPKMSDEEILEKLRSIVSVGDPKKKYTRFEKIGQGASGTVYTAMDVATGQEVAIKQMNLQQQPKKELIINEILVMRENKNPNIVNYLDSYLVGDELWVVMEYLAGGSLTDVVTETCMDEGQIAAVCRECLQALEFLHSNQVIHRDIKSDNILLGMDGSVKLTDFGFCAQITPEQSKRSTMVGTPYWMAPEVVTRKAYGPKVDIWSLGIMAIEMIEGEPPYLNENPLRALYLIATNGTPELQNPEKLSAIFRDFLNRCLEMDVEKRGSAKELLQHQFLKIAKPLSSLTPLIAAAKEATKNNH
Experiment [7] can be described thus: Selectivity interaction (KinomeScan (DiscoverX)) EUB0000045b CDPK1.
In experiment [8] the target is Dual specificity mitogen-activated protein kinase kinase 2 (Homo sapiens) (UniProt P36507). The experiment in a line: Selectivity interaction (KinomeScan (DiscoverX)) EUB0000618a MAP2K2. The following applies: at 10 µM.
Chain of Dual specificity mitogen-activated protein kinase kinase 2 (Homo sapiens) (P36507 whole entry): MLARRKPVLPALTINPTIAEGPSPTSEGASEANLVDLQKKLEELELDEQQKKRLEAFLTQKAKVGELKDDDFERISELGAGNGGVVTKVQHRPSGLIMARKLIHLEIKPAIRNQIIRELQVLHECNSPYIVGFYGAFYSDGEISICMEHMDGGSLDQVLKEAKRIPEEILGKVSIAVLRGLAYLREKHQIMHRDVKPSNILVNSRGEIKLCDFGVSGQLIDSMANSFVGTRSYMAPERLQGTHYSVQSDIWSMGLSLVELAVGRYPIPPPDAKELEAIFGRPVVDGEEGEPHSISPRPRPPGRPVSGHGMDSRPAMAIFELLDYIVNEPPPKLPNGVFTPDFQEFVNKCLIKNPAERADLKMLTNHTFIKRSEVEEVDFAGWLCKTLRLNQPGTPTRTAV

The record followed here is ChEMBL document CHEMBL5465560, “Selectivity Literature for EUbOPEN Chemogenomic Library” (2024).

The structures appear in SMILES notation.

Chain of Homeodomain-interacting protein kinase 3 (Q9H422 whole entry, looked up): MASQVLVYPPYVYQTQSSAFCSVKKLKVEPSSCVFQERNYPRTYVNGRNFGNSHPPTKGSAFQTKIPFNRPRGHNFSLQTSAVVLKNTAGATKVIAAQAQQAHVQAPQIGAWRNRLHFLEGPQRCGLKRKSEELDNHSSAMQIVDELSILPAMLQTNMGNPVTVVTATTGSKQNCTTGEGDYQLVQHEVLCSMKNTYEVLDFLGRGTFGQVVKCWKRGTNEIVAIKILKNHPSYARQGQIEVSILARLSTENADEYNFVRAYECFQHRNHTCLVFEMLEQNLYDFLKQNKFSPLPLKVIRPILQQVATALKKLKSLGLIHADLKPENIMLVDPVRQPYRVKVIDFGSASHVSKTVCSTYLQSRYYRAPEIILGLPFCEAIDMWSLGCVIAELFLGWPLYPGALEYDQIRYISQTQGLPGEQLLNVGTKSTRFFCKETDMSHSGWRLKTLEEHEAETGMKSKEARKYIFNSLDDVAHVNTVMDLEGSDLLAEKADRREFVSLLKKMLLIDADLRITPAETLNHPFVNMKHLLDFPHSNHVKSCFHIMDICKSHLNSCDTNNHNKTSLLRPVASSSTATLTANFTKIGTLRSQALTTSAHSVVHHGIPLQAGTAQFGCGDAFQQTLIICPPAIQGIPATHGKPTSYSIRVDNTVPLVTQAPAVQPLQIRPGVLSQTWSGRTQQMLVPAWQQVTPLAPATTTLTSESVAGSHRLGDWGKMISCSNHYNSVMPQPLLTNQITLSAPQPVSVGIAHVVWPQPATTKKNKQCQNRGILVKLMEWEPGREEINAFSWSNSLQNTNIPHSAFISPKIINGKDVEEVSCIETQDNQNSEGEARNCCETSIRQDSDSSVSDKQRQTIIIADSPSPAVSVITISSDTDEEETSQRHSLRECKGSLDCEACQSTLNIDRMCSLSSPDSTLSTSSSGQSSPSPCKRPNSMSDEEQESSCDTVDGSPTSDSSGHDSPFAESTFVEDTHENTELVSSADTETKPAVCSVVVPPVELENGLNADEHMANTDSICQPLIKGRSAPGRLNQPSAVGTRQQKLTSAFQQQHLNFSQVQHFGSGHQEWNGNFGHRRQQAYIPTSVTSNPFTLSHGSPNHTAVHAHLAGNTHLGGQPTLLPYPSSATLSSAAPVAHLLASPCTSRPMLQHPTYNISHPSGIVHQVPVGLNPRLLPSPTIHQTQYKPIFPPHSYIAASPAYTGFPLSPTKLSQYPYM

Consider `CNC(=O)Nc1ccc(-c2nc(N3CC4CCC(C3)O4)c3cnn(C4CCC5(CC4)OCCO5)c3n2)cc1`, for which the % of control in experiment [1] is 87%.
In the case of `O=C(NOC[C@H](O)CO)c1ccc(F)c(F)c1Nc1ccc(I)cc1F`, the % of control in experiment [2] worked out at 49%.
Turning to `N#Cc1cccc(-c2c[nH]c3ncnc(N4CCOCC4)c23)c1`, the % of inhibition in experiment [3] was -6%.
As to `CC[C@@H]1[C@H](F)C(=O)N[C@@H]1COc1nccc2cc(C(N)=O)c(OC)cc12` [ZIMLOVISERTIB], in experiment [4], the % of inhibition worked out at 4.58%.
For `Cc1cc(F)c(C(=O)Nc2cccc(-c3nncn3C(C)C)n2)cc1-n1cnc(C2CC2)c1`, the % of control in experiment [5] came out at 100%.
Turning to `C=CC(=O)Nc1cccc(C(=O)Nc2ccc(Nc3cc(-c4[nH]c(SC)nc4C)ccn3)cc2)c1`, the % of control in experiment [6] (at 1 µM) was determined as 90%; in experiment [6] (at 5 µM) it was 84%.
As to `C=CC(=O)Nc1cc(-n2c(=O)ccc3cnc4ccc(-c5ccc(NS(C)(=O)=O)cc5)cc4c32)ccc1C`, the % of control in experiment [7] (at 1 µM) stood at 100%; in experiment [7] (at 10 µM), 62%.
`O[C@H]1CC[C@H](Nc2ncc3nc(Nc4c(F)cc(F)cc4F)n([C@H]4CCOC4)c3n2)CC1` gave a % of control in experiment [8] of 100%.
